From ChEMBL document CHEMBL1147199, “Exploration of the correlation between the structure, hemolytic activity, and cytotoxicity of steroid saponins” (Bioorg Med Chem, 2007) come the findings set out here.

Some results are limits rather than exact numbers.

A short description of this data set: Cytotoxicity against human erythrocytes assessed as hemolytic activity after 60 mins. The data set is classed as cell-based, Erythrocyte. As to conditions: read-out: HD50.
As to `CC(=O)O[C@@H]1[C@@H](O)[C@@H](O)[C@H](O[C@H]2[C@H](O)[C@@H](O)[C@H](O[C@H]3CC[C@@]4(C)C(=CC[C@H]5[C@@H]6C[C@@H]7O[C@]8(CC[C@@H](C)CO8)[C@@H](C)[C@@H]7[C@@]6(C)CC[C@@H]54)C3)O[C@@H]2CO)O[C@H]1C`, the HC50 at 1 h is 29.3 µM.

Take `C[C@@H]1CC[C@@]2(OC1)O[C@H]1C[C@H]3[C@@H]4CC=C5C[C@@H](O[C@@H]6O[C@H](CO)[C@@H](O[C@H]7O[C@H](C)[C@@H](OCCNC(=O)c8ccccc8)[C@H](O)[C@@H]7O)[C@H](O)[C@H]6O[C@H]6O[C@H](C)[C@@H](O)[C@H](O)[C@@H]6O)CC[C@]5(C)[C@H]4CC[C@]3(C)[C@H]1[C@@H]2C`: the HC50 at 1 h was found to be 49.3 µM.

As to `C[C@@H]1CC[C@@]2(OC1)O[C@H]1C[C@H]3[C@@H]4CC=C5C[C@@H](O[C@@H]6O[C@H](CNC(=O)c7ccccc7I)[C@@H](O[C@H]7O[C@H](C)[C@@H](O)[C@H](O)[C@@H]7O)[C@H](O)[C@H]6O[C@H]6O[C@H](C)[C@@H](O)[C@H](O)[C@@H]6O)CC[C@]5(C)[C@H]4CC[C@]3(C)[C@H]1[C@@H]2C`, the HC50 at 1 h turned out to be 7.4 µM.

Take `C[C@@H]1CC[C@@]2(OC1)O[C@H]1C[C@H]3[C@@H]4CC=C5C[C@@H](O[C@@H]6O[C@H](CNC(=O)COc7ccc(Cl)cc7)[C@@H](O[C@H]7O[C@H](C)[C@@H](O)[C@H](O)[C@@H]7O)[C@H](O)[C@H]6O[C@H]6O[C@H](C)[C@@H](O)[C@H](O)[C@@H]6O)CC[C@]5(C)[C@H]4CC[C@]3(C)[C@H]1[C@@H]2C`: the HC50 at 1 h was 9.4 µM.

For `C[C@@H]1CC[C@@]2(OC1)O[C@H]1C[C@H]3[C@@H]4CC=C5C[C@@H](O[C@@H]6O[C@H](CN)[C@@H](O[C@H]7O[C@H](C)[C@@H](O)[C@H](O)[C@@H]7O)[C@H](O)[C@H]6O[C@H]6O[C@H](C)[C@@H](O)[C@H](O)[C@@H]6O)CC[C@]5(C)[C@H]4CC[C@]3(C)[C@H]1[C@@H]2C`, the HC50 at 1 h is 24.8 µM.

As to `C=CCCCCCCCCC(=O)NCCO[C@H]1[C@H](O)[C@H](O)[C@@H](O[C@H]2[C@H](O)[C@@H](O[C@H]3O[C@H](C)[C@@H](O)[C@H](O)[C@@H]3O)[C@H](O[C@H]3CC[C@@]4(C)C(=CC[C@H]5[C@@H]6C[C@@H]7O[C@]8(CC[C@@H](C)CO8)[C@@H](C)[C@@H]7[C@@]6(C)CC[C@@H]54)C3)O[C@@H]2CO)O[C@@H]1C`, the HC50 at 1 h was 3.8 µM.

Regarding `CC(=O)NC[C@H]1O[C@@H](O[C@H]2CC[C@@]3(C)C(=CC[C@H]4[C@@H]5C[C@@H]6O[C@]7(CC[C@@H](C)CO7)[C@@H](C)[C@@H]6[C@@]5(C)CC[C@@H]43)C2)[C@H](O[C@H]2O[C@H](C)[C@@H](O)[C@H](O)[C@@H]2O)[C@@H](O)[C@@H]1O[C@H]1O[C@H](C)[C@@H](O)[C@H](O)[C@@H]1O`, the HC50 at 1 h is above 50 µg/mL.

For the molecule `C[C@@H]1CC[C@@]2(OC1)O[C@H]1C[C@H]3[C@@H]4CC=C5C[C@@H](O[C@@H]6O[C@H](CNC(=O)/C=C/c7ccccc7)[C@@H](O[C@H]7O[C@H](C)[C@@H](O)[C@H](O)[C@@H]7O)[C@H](O)[C@H]6O[C@H]6O[C@H](C)[C@@H](O)[C@H](O)[C@@H]6O)CC[C@]5(C)[C@H]4CC[C@]3(C)[C@H]1[C@@H]2C`, the HC50 at 1 h worked out at 11.8 µM.

Regarding `C[C@@H]1CC[C@@]2(OC1)O[C@H]1C[C@H]3[C@@H]4CC=C5C[C@@H](O[C@@H]6O[C@H](CNC(=O)COc7ccccc7)[C@@H](O[C@H]7O[C@H](C)[C@@H](O)[C@H](O)[C@@H]7O)[C@H](O)[C@H]6O[C@H]6O[C@H](C)[C@@H](O)[C@H](O)[C@@H]6O)CC[C@]5(C)[C@H]4CC[C@]3(C)[C@H]1[C@@H]2C`, the HC50 at 1 h amounted to 9.4 µM.

Turning to `C[C@@H]1CC[C@@]2(OC1)O[C@H]1C[C@H]3[C@@H]4CC=C5C[C@@H](O[C@@H]6O[C@H](CO)[C@@H](O[C@H]7O[C@H](C)[C@@H](OCCNC(=O)CCCCl)[C@H](O)[C@@H]7O)[C@H](O)[C@H]6O[C@H]6O[C@H](C)[C@@H](O)[C@H](O)[C@@H]6O)CC[C@]5(C)[C@H]4CC[C@]3(C)[C@H]1[C@@H]2C`, the HC50 at 1 h is 3.8 µM.

In the case of `C[C@@H]1CC[C@@]2(OC1)O[C@H]1C[C@H]3[C@@H]4CC=C5C[C@@H](O[C@@H]6O[C@H](CO)[C@@H](O[C@H]7O[C@H](C)[C@@H](OCCNC(=O)c8ccccc8I)[C@H](O)[C@@H]7O)[C@H](O)[C@H]6O[C@H]6O[C@H](C)[C@@H](O)[C@H](O)[C@@H]6O)CC[C@]5(C)[C@H]4CC[C@]3(C)[C@H]1[C@@H]2C`, the HC50 at 1 h stood at 1.7 µM.

As to `C[C@@H]1CC[C@@]2(OC1)O[C@H]1C[C@H]3[C@@H]4CC=C5C[C@@H](O[C@@H]6O[C@H](CNC(=O)c7ccc([N+](=O)[O-])cc7)[C@@H](O[C@H]7O[C@H](C)[C@@H](O)[C@H](O)[C@@H]7O)[C@H](O)[C@H]6O[C@H]6O[C@H](C)[C@@H](O)[C@H](O)[C@@H]6O)CC[C@]5(C)[C@H]4CC[C@]3(C)[C@H]1[C@@H]2C`, the HC50 at 1 h came out at 39 µM.

As to `C[C@@H]1CC[C@@]2(OC1)O[C@H]1C[C@H]3[C@@H]4CC=C5C[C@@H](O[C@@H]6O[C@H](CO)[C@@H](O)[C@H](O)[C@H]6O[C@@H]6O[C@@H](C)[C@H](O)[C@@H](O)[C@H]6O)CC[C@]5(C)[C@H]4CC[C@]3(C)[C@H]1[C@@H]2C` [OPHIOPOGONIN C], the HC50 at 1 h was found to be 21.6 µM.

As for `C[C@@H]1CC[C@@]2(OC1)O[C@H]1C[C@H]3[C@@H]4CC=C5C[C@@H](O[C@@H]6O[C@H](CO)[C@@H](O[C@H]7O[C@H](CO)[C@@H](O)[C@@H]7O)[C@H](O)[C@H]6O[C@H]6O[C@H](C)[C@@H](O)[C@H](O)[C@@H]6O)CC[C@]5(C)[C@H]4CC[C@]3(C)[C@H]1[C@@H]2C` [POLYPHILLIN D], the HC50 at 1 h is 3.9 µM.

`C[C@@H]1CC[C@@]2(OC1)O[C@H]1C[C@H]3[C@@H]4CC=C5C[C@@H](O[C@@H]6O[C@H](CO)[C@@H](O[C@H]7O[C@H](C)[C@@H](OCCN)[C@H](O)[C@@H]7O)[C@H](O)[C@H]6O[C@H]6O[C@H](C)[C@@H](O)[C@H](O)[C@@H]6O)CC[C@]5(C)[C@H]4CC[C@]3(C)[C@H]1[C@@H]2C`: the HC50 at 1 h amounted to 2.6 µM.

In the case of `C[C@@H]1CC[C@@]2(OC1)O[C@H]1C[C@H]3[C@@H]4CC=C5C[C@@H](O[C@@H]6O[C@H](CNS(=O)(=O)c7cccc8c(N(C)C)cccc78)[C@@H](O[C@H]7O[C@H](C)[C@@H](O)[C@H](O)[C@@H]7O)[C@H](O)[C@H]6O[C@H]6O[C@H](C)[C@@H](O)[C@H](O)[C@@H]6O)CC[C@]5(C)[C@H]4CC[C@]3(C)[C@H]1[C@@H]2C`, the HC50 at 1 h was determined as 6.9 µM.

Turning to `C[C@@H]1CC[C@@]2(OC1)O[C@H]1C[C@H]3[C@@H]4CC=C5C[C@@H](O[C@@H]6O[C@H](CO)[C@@H](O[C@H]7O[C@H](C)[C@@H](OCCNC(=O)COc8ccc(Cl)cc8)[C@H](O)[C@@H]7O)[C@H](O)[C@H]6O[C@H]6O[C@H](C)[C@@H](O)[C@H](O)[C@@H]6O)CC[C@]5(C)[C@H]4CC[C@]3(C)[C@H]1[C@@H]2C`, the HC50 at 1 h was determined as 2.9 µM.

On to `C[C@@H]1CC[C@@]2(OC1)O[C@H]1C[C@H]3[C@@H]4CC=C5C[C@@H](O[C@@H]6O[C@H](CO)[C@@H](O[C@@H]7O[C@@H](C)[C@H](O)[C@@H](O)[C@H]7O)[C@H](O)[C@H]6O[C@@H]6O[C@@H](C)[C@H](O)[C@@H](O)[C@H]6O)CC[C@]5(C)[C@H]4CC[C@]3(C)[C@H]1[C@@H]2C` [DIOSCIN], for which the HC50 at 1 h is 6.8 µM.

Turning to `C[C@@H]1CC[C@@]2(OC1)O[C@H]1C[C@H]3[C@@H]4CC=C5C[C@@H](O[C@@H]6O[C@H](CO)[C@@H](O[C@H]7O[C@H](C)[C@@H](OCCNC(=O)C(F)(F)F)[C@H](O)[C@@H]7O)[C@H](O)[C@H]6O[C@H]6O[C@H](C)[C@@H](O)[C@H](O)[C@@H]6O)CC[C@]5(C)[C@H]4CC[C@]3(C)[C@H]1[C@@H]2C`, the HC50 at 1 h was 5.7 µM.

For the molecule `C[C@@H]1CC[C@@]2(OC1)O[C@H]1C[C@H]3[C@@H]4CC=C5C[C@@H](O[C@@H]6O[C@H](CNC(=O)c7ccccc7)[C@@H](O[C@H]7O[C@H](C)[C@@H](O)[C@H](O)[C@@H]7O)[C@H](O)[C@H]6O[C@H]6O[C@H](C)[C@@H](O)[C@H](O)[C@@H]6O)CC[C@]5(C)[C@H]4CC[C@]3(C)[C@H]1[C@@H]2C`, the HC50 at 1 h stood at 10.7 µM.

As to `CCCCCCCCCCCCCCCCCC(=O)NCCO[C@H]1[C@H](O)[C@H](O)[C@@H](O[C@H]2[C@H](O)[C@@H](O[C@H]3O[C@H](C)[C@@H](O)[C@H](O)[C@@H]3O)[C@H](O[C@H]3CC[C@@]4(C)C(=CC[C@H]5[C@@H]6C[C@@H]7O[C@]8(CC[C@@H](C)CO8)[C@@H](C)[C@@H]7[C@@]6(C)CC[C@@H]54)C3)O[C@@H]2CO)O[C@@H]1C`, the HC50 at 1 h was above 50 µg/mL.

With `C[C@@H]1CC[C@@]2(OC1)O[C@H]1C[C@H]3[C@@H]4CC[C@H]5C[C@@H](O[C@@H]6O[C@H](CO)[C@H](O[C@H]7O[C@H](C)[C@@H](O)[C@H](O)[C@@H]7O)[C@H](O)[C@H]6O[C@@H]6O[C@@H](C)[C@H](O)[C@@H](O)[C@H]6O)[C@H](O)C[C@]5(C)[C@H]4CC[C@]3(C)[C@H]1[C@@H]2C`, the HC50 at 1 h turned out to be 9.6 µM.

For `CCCCCC(=O)O[C@H]1[C@H](O)[C@H](O)[C@@H](O[C@H]2[C@H](O)[C@@H](O[C@H]3O[C@H](C)[C@@H](O)[C@H](O)[C@@H]3O)[C@H](O[C@H]3CC[C@@]4(C)C(=CC[C@H]5[C@@H]6C[C@@H]7O[C@]8(CC[C@@H](C)CO8)[C@@H](C)[C@@H]7[C@@]6(C)CC[C@@H]54)C3)O[C@@H]2CO)O[C@@H]1C`, the HC50 at 1 h came out at 2.2 µM.
